Measured values taken from US4088772A, “Methanodibenzocycloheptapyrroles” (E. I. Du Pont de Nemours and Company, priority 1975, dated 1978).
Counter-ions that a name gives are not always drawn. Like-named read-outs stand apart in the source and are kept apart here.

Tests used:
female white mice = test: animal or person; conditions: Mus musculus, po, oral, mice
in vivo = conditions: mouse, in vivo, po
[1] = system: phenylquinone-induced writhing; test: Phenylquinone writhing test (analgesia); type: in vivo, mouse (Carworth CF1 S female); conditions: Mus musculus, po
Description: This mouse test is predictive of analgesic response in humans. [E. Siegmund, R. Cadmus and G. Lee, Proc. Soc.
ED50 values were obtained graphically from the data.

female CF1 S mice = test: Mouse spontaneous motor activity (activity cage); type: in vivo, mouse (CF1 S female); conditions: 0.5 h, Table 1, oral, mice, 30 minutes after dosing, read-out: Exploratory Loss Activity Cage ED50
Protocol: Mouse Spontaneous Motor Activity (Activity Cage)
Twenty-four per dose, 16- 20 g or 18-22 g, female CF1 S mice, fasted 16- 22 hours, are intubated (in pairs) with drug at t doses such as 0, 1, 3, 9, 27 and 81 mg/kg in 10 ml/kg of aqueous 1% methylcellulose. The mice are then put in separate "shoe-box" cages (12 × 7.5 × 5.3 inches plastic with a 0.33 inch mesh stainless steel lid), and 20 minutes after intubation the animals in pairs are moved to covered Woodard Photoelectric Activity Chambers (central light source type measurement floor area = 96 in^2). Ten minutes later (30 minutes after dosing) a 5-minute count is taken. Counting chamber characteristics are balanced out by counting 2 pairs of mice from each dose level in each of 6 different counting chambers. Half of each test is run in the a.m. and the other half is run in the p.m. to minimize "biological clock" variations.
Canad. Biol. 20, 239-50 (1961), raw counts are thus transformed for statistical treatment (Student's t test). The means of the square roots then are squared and an ED50 for stimulation or depression (or both) is determined graphically.

[2] = read-out: Catatonia ED50, Table 1
[3] = read-out: Exploratory Loss Visual ED50, Table 1
[4] = read-out: Muscle Tone ED50, Table 1
[5] = read-out: Reflexes Grip ED50, Table 1
[6] = read-out: Reflexes Lift ED50, Table 1
[7] = read-out: Reflexes Pinna ED50, Table 1
[8] = read-out: Catatonia ED50, Table III
[9] = read-out: Exploratory Loss Visual ED50, Table III
[10] = read-out: Muscle Tone ED50, Table III
[11] = read-out: Ptosis ED50, Table III
[12] = read-out: Reflexes Grip ED50, Table III
[13] = read-out: Reflexes Lift ED50, Table III
[14] = read-out: Reflexes Pinna ED50, Table III

Structure (SMILES)	ED50 (female white mice; [2]) [mg/kg]	ED50 (female white mice; [3]) [mg/kg]	ED50 (female white mice; [4]) [mg/kg]	ED50 (female white mice; read-out: Ptosis ED50, Table 1) [mg/kg]	ED50 (female white mice; [5]) [mg/kg]	ED50 (female white mice; [6]) [mg/kg]	ED50 (female white mice; [7]) [mg/kg]	ED50 (in vivo) [mg/kg]	LD50 at 24 h (in vivo) [mg/kg]	ED50 ([1]; Table 1, mice) [mg/kg]	ED50 (female CF1 S mice) [mg/kg]	ED50 (female white mice; [8]) [mg/kg]	ED50 (female white mice; [9]) [mg/kg]	ED50 (female white mice; [10]) [mg/kg]	ED50 (female white mice; [11]) [mg/kg]	ED50 (female white mice; [12]) [mg/kg]	ED50 (female white mice; [13]) [mg/kg]	ED50 (female white mice; [14]) [mg/kg]	ED50 ([1]; Table III, mice) [mg/kg]
C1=C(CN2CC3c4ccccc4C4CC3(C2)c2ccccc24)CCCC1 (centres unmarked) [Example 26, 2-(1-Cyclohexenylmethyl)-2,3,8,12b-tetrahydro-1H-3a,8-methanodibenzo[3.4:6,7]cyclohepta[1,2-c]pyrrole]	10	12	7	6	400	15	15	> 324	> 324	6.8	0.8	–	–	–	–	–	–	–	–
C1=CCC(CN2CC3c4ccccc4C4CC3(C2)c2ccccc24)CC1 (centres unmarked) [Example 27, 2-(3-Cyclohexenylmethyl)-2,3,8,12b-tetrahydro-1H-3a,8-methanodibenzo[3,4:6,7]cyclohepta[1,2-c]pyrrole]	4.5	4.5	4.5	2.9	97	9	8	> 324	> 324	4.2	0.29	–	–	–	–	–	–	–	–
CC(C1CCCC1)N1C[C@@H]2c3ccccc3[C@@H]3C[C@@]2(C1)c1ccccc13 (some centres unmarked) [Example 50, 2-(1-Cyclopentylethyl)-2,3,8,12b-tetrahydro-1H-3a,8-methanodibenzo[3,4:6,7]cyclohepta[1,2-c]pyrrole]	20	20	36	60	300	60	36	> 324	> 324	23	–	–	–	–	–	–	–	–	–
CC1CCCC1CN1C[C@@H]2c3ccccc3[C@@H]3C[C@@]2(C1)c1ccccc13 (some centres unmarked) [Example 51, 2-(2-Methylcyclopentylmethyl)-2,3,8,12b-tetrahydro-1H-3a,8-methanodibenzo[3,4:6,7]cyclohepta[1,2-c]pyrrole]	60	100	60	36	300	60	36	> 324	> 324	10	–	–	–	–	–	–	–	–	–
CC1CCC(CN2C[C@@H]3c4ccccc4[C@@H]4C[C@@]3(C2)c2ccccc24)C1 (some centres unmarked) [Example 52, 2-(3-Methylcyclopentylmethyl)-2,3,8,12b-tetrahydro-1H-3a,8-methanodibenzo[3,4:6,7]cyclohepta[1,2-c]-pyrrole]	12	12	12	7	200	12	7	> 324	> 324	5	–	–	–	–	–	–	–	–	–
c1ccc2c(c1)[C@@H]1C[C@@]3(CN(CC4CCCO4)C[C@H]23)c2ccccc21 (some centres unmarked) [Example 62, 2-(2-Tetrahydrofurylmethyl)-2,3,8,12b-tetrahydro-1H-3a,8-methanodibenzo[3,4:6,7]cyclohepta[1,2-c]pyrrole]	20	12	20	–	200	20	–	–	> 324	7	–	–	–	–	–	–	–	–	–
CC(O)c1ccc2c(c1)[C@]13C[C@H]2c2ccccc2[C@H]1CN(CC1CCCC1)C3 (stereo partly drawn) [Example 67, 5-(α-Hydroxyethyl)-2-cyclopentylmethyl-2,3,8,12b-tetrahydro-1H-3a,8-methanodibenzo[3,4:6,7]cyclohepta[1,2-c]-pyrrole Hydrochloride]	–	–	–	–	–	–	–	–	> 450	–	–	5	5	6	3.6	187	21	5.6	3.4
C=CCC(O)c1ccc2c(c1)[C@]13C[C@H]2c2ccccc2[C@H]1CN(CC1CCCC1)C3 (some centres unmarked) [Example 75, 5-[1-(1-Hydroxy-3-butenyl)]-2-cyclopentylmethyl-2,3,8,12b-tetrahydro-1H-3a,8-methanodibenzo[3,4:6,7]cyclohepta[1,2-c]pyrrole Hydrochloride]	–	–	–	–	–	–	–	–	> 324	–	–	36	60	36	12	200	20	7	11
